Entries after “also recorded” stand apart in the source; their conditions may differ. Like-named read-outs stand apart in the source and are kept apart here. One block for each molecule: values may come before it.
Tests used:
Type in all cases: in vivo, human
[1] = Safety assessment: adverse events, laboratory tests, ECG (Example 1); conditions: for TEAEs considered by the investigator to be related to the drug: Example 1
Method: (§1) Subjects in both cohorts returned to the study center on Day 15 for safety monitoring, and completion of the Termination Visit procedures, followed by discharge from the study. Safety was assessed by spontaneously reported adverse events, physical examinations, and routine clinical laboratory tests. To the extent possible, any adverse events deemed study drug-related and that were ongoing at the time of discharge from the study were followed-up to resolution or until a determination is made that the unresolved event was stable.

[2] = Ketoconazole PK after a 400 mg single dose on Day 8 of mifepristone 300 or 600 mg OD (Example 2)
Excerpt: (§2) Subjects were discharged on Day 11.
(§3) Subjects were discharged on Day 11. Subjects in both cohorts returned to study center on Day 13 for safety monitoring, collection of the 120-hour PK draw, and completion of the Termination Visit procedures, followed by discharge from the study. To the extent possible, any adverse events deemed study drug-related and that were ongoing at the time of discharge from the study were followed-up to resolution or until a determination was made that the unresolved event was stable.
(§4) DURATION OF TREATMENT: Up to a total of 28 days, including up to 2 weeks screening, dosing on Days 1-8, safety observation, and PK sample collection through Day 13.
(§5) Descriptive statistics count, mean, median, standard deviation, minimum, maximum, and % coefficient of variation) were provided. Ketoconazole concentrations were listed and summarized. GM means of Cmax and total AUC were compared for the single dose in this study to the combined data of reported 400 mg single doses of ketoconazole of healthy subjects from the literature.

[3] = Effect of co-administration with mifepristone on ketoconazole PK (Example 3); conditions: Test: Day 17, 600 mg mifepristone OD + 200 mg ketoconazole BID; Reference: Day -1, 200 mg ketoconazole single dose
Method: (§6) A single dose of ketoconazole was administered on Day −1.
(§7) The study was a two period study design.

[4] = Safety assessment: adverse events, physical examinations, laboratory tests (Example 2)
Method: Safety was assessed by spontaneously reported adverse events, physical examinations, and routine clinical laboratory tests. Adverse event data were tabulated. Physical findings and laboratory test results were listed by subject.

[5] = Liver function of a patient with excess cortisol on ketoconazole plus reduced mifepristone dose (Examples 4-7); conditions: concomitant ketoconazole
[6] = Effect of oral ketoconazole 400 mg OD or 200 mg BID on plasma pharmacokinetics of a 300 mg single dose of mifepristone, fasted (Example 1); conditions: for AUC: male, human, plasma, oral, read-out: AUCtot (mean)
Excerpt: This study was an open-label study in healthy male subjects.
(§8) Healthy male volunteers between the ages of 18 to 45 years of age with a body mass index (BMI) ranging between 19 and 32 kg/m2 and a weight of at least 60 kg (132 lbs) were enrolled. Subjects had no clinically significant abnormal findings on the physical examination, ECG, blood pressure, heart rate, medical history, or clinical laboratory results during screening. The QTc interval at screening was less than 450 msec.
In cohort 1, six subjects received ketoconazole 400 mg OD for 14 days.
Subjects remained in the clinic on Days 2 and 3 to receive 400 mg OD oral ketoconazole fasted, and for safety evaluation and collection of blood pharmacokinetic (PK) samples. Subjects were discharged from the clinic on Day 4 following administration of 400 mg OD oral ketoconazole fasted, and returned to the clinic the mornings of Days 5 through 13 to receive 400 mg OD oral ketoconazole fasted.
In cohort 2, six subjects received ketoconazole 200 mg BID for 14 days. […] All 12 subjects completed the study. Cohort 2 subjects participated in a Screening visit to assess eligibility and a check-in Day (Day −1) during which eligibility was re-confirmed. […] The evening of Day 1, subjects received 200 mg oral ketoconazole. Subjects remained in the clinic on Days 2, 3 and 4 to receive 200 mg BID oral ketoconazole, and for safety evaluation and collection of blood pharmacokinetic (PK) samples. Subjects were discharged from the clinic on Day 4 following evening administration of 200 mg oral ketoconazole, and returned to the clinic the morning and evening of Days 5 through 13 to receive 200 mg BID oral ketoconazole. Morning doses of ketoconazole on Days 0-13 were administered in the fasted state.
as §1
Descriptive statistics (count, mean, median, standard deviation, minimum, maximum, and % coefficient of variation) were provided. […] Comparisons with previous study data were made.

[7] = Safety: adverse events, laboratory tests, vital signs, ECG (Example 3); conditions: mifepristone 600 mg OD Days 1-17, ketoconazole 200 mg BID Days 13-17
[8] = Cross-study comparison of exposure to mifepristone and metabolites with historic 1200 mg OD mifepristone study (Example 3); conditions: for Ratio % Test/Ref, AUC0-24 (geometric mean ratio) / Ratio % Test/Ref, Cmax (geometric mean ratio): Test: present study Day 17, 600 mg mifepristone OD + 200 mg ketoconazole BID, Reference: historic study Day 7, 1200 mg mifepristone OD alone, after 34% fat meal
[9] = Effect of a 400 mg single dose of ketoconazole on PK of an 8-day regimen of 300 mg or 600 mg OD mifepristone, moderate fat breakfast (Example 2)
Method: This was an open-label study in healthy male subjects. […] The 400 mg single dose of ketoconazole was given to all subjects on day 8.
METHODOLOGY: Twelve subjects were enrolled, six in Cohort 1 and 6 in Cohort 2.
as §2, §3
as §8, with “DIAGNOSIS AND MAIN […] FOR INCLUSION: Healthy” for “Healthy”
as §4, §5

[10] = Effect of ketoconazole 200 mg BID on PK of mifepristone 600 mg OD and metabolites, with food (Example 3); conditions: for concentrations on Day 17 compared with Day 12: Day 17: mifepristone 600 mg daily + ketoconazole 200 mg twice daily, Day 12: mifepristone alone; for Ratio % Test/Reference, AUC0-24 (geometric mean ratio) / Ratio % Test/Reference, Cmax (geometric mean ratio): Test: Day 17, 600 mg mifepristone OD + 200 mg ketoconazole BID, Reference: Day 12, 600 mg mifepristone OD; for effect of co-administration with ketoconazole on exposure: mifepristone 600 mg OD + ketoconazole 200 mg BID
Method: as §6, §7

[11] = single 400 mg ketoconazole dose on Day 8
[12] = MIFE 300 mg single dose fasted, C1: Keto 400 mg OD
[13] = Cohort 2 (600 mg OD), between Day 7 and Day 8
[14] = 900 mg mifepristone daily with inhibition of CYP3A (extrapolated from 600 mg data)

Ratio % Test/Ref, AUC0-24 (geometric mean ratio) [8]: 118.18%
Ratio % Test/Ref, Cmax (geometric mean ratio) [8]: 116.55%
mean metabolite exposure compared with mifepristone ([9]; mifepristone 300 or 600 mg OD): lower
concentrations on Day 17 compared with Day 12 [10]: higher
Ratio % Test/Reference, AUC0-24 (geometric mean ratio) [10]: 166.86%
Ratio % Test/Reference, Cmax (geometric mean ratio) [10]: 169.13%
mean increase in exposure ([10]; co-administration with ketoconazole 200 mg BID, mifepristone 600 mg OD): approximately 70%
effect of co-administration with ketoconazole on exposure [10]: increased by ketoconazole
Structure (SMILES): CN(C)c1ccc([C@H]2C[C@@]3(C)[C@@H](CC[C@@]3(O)C#CCO)[C@@H]3CCC4=CC(=O)CCC4=C32)cc1 [RU 42698, (8S,11R,13S,14S,17S)-11-[4-(dimethylamino)phenyl]-17-hydroxy-17-(3-hydroxyprop-1-ynyl)-13-methyl-1,2,6,7,8,11,12,14,15,16-decahydrocyclopenta[a]phenanthren-3-one]

Ratio % Test/Ref, AUC0-24 (geometric mean ratio) [8]: 81.43%
Ratio % Test/Ref, Cmax (geometric mean ratio) [8]: 82.45%
concentrations on Day 17 compared with Day 12 [10]: similar
Ratio % Test/Reference, AUC0-24 (geometric mean ratio) [10]: 94.88%
Ratio % Test/Reference, Cmax (geometric mean ratio) [10]: 95.48%
Structure (SMILES): CC#C[C@]1(O)CC[C@H]2[C@@H]3CCC4=CC(=O)CCC4=C3[C@@H](c3ccc(N)cc3)C[C@@]21C [RU 42848, (8S,11R,13S,14S,17S)-11-(4-aminophenyl)-17-hydroxy-13-methyl-17-prop-1-ynyl-1,2,6,7,8,11,12,14,15,16-decahydrocyclopenta[a]phenanthren-3-one]
effect of co-administration with ketoconazole on exposure [10]: not affected by ketoconazole; also recorded: little change in exposure

The next lines start with the molecule.

Structure (SMILES): CC(=O)N1CCN(c2ccc(OCC3COC(Cn4ccnc4)(c4ccc(Cl)cc4Cl)O3)cc2)CC1 (stereo not drawn) [Ketoconazole, 1-acetyl-4-[4-[[2-(2,4-dichlorophenyl)-2-[(1H-imidazol-1-yl)-methyl]-1,3-dioxolan-4-yl]methoxy]phenyl]piperazine]
TEAEs considered by the investigator to be related to the drug [1]: One TEAE of insomnia
ketoconazole half-life on either mifepristone regimen ([2]; single 400 mg dose on Day 8, mifepristone 300 vs 600 mg OD): not appreciably different
ketoconazole AUCinf higher on 600 mg OD relative to 300 mg OD mifepristone regimen [2, 11]: 36%
ketoconazole Cmax higher on 600 mg OD relative to 300 mg OD mifepristone regimen [2, 11]: 37%
Ratio % Test/Reference, AUC (geometric mean ratio) [3]: 365.36%
Ratio % Test/Reference, Cmax (geometric mean ratio) [3]: 252.71%

Structure (SMILES): CC#C[C@]1(O)CC[C@H]2[C@@H]3CCC4=CC(=O)CCC4=C3[C@@H](c3ccc(N(C)C)cc3)C[C@@]21C [Mifepristone, 11β-(4-dimethylaminophenyl)-17β-hydroxy-17α-(1-propynyl)-estra-4,9-dien-3-one]
subjects with at least 1 treatment-emergent adverse event (TEAE) ([1]; 12 subjects, mifepristone 300 mg single dose with ketoconazole for 14 days): 25%
TEAEs considered by the investigator to be related to the drug [1]: No TEAE
serious adverse effect (SAE) ([1]; mifepristone 300 mg single dose with ketoconazole for 14 days): No subject experienced a serious adverse effect (SAE); also recorded: No subject experienced an SAE
TEAEs considered possibly or probably related to mifepristone administration ([4]; four subjects in Cohort 2 (600 mg)): dizziness, nausea, vomiting, dry mouth, and rash
SAE ([4]; mifepristone 300 or 600 mg OD 8 days, ketoconazole 400 mg Day 8): No subject experienced an SAE
subjects with at least 1 TEAE ([4]; twelve subjects, mifepristone 300 or 600 mg OD 8 days, ketoconazole 400 mg Day 8): 50%
liver function of the patient ([5]; mifepristone reduced from 600 mg to 300 mg daily): not significantly compromised
liver function of the patient ([5]; mifepristone reduced from 900 mg to 600 mg daily): not significantly compromised
liver function of the patient ([5]; mifepristone reduced from 1200 mg to 900 mg daily): not significantly compromised
liver function of the patient ([5]; mifepristone reduced from 1500 mg to 1200 mg daily): not significantly compromised
geometric mean ratio (GMR) for AUCinf ([6]; Cohort 2 vs Cohort 1): 1.05
geometric mean ratio (GMR) for Cmax ([6]; Cohort 2 vs Cohort 1): 1.15
Mean Ratio Cmax (C2/C1) ([6]; Keto 200 mg BID vs 400 mg OD, MIFE 300 mg single dose): 1.15 ng/mL
T1/2 (mean) [6, 12]: 37.1 h
AUC [6, 12]: 117 µg·h/mL
AUC ([6]; MIFE 300 mg single dose fasted, C2: Keto 200 mg BID): 131 µg·h/mL
deaths or SAEs [7]: No deaths or SAEs
severe TEAEs [7]: No severe TEAEs
exposures as share of those following the highest labeled dose of mifepristone (1200 mg daily) ([8]; 600 mg mifepristone OD + 200 mg ketoconazole BID): approximately 85%
Ratio % Test/Ref, AUC0-24 (geometric mean ratio) [8]: 87.27%
Ratio % Test/Ref, Cmax (geometric mean ratio) [8]: 84.64%
mifepristone exposure less than that of 1200 mg mifepristone in the absence of ketoconazole ([8]; mifepristone 600 mg co-administered with ketoconazole): 13-15%
increase in AUC0-24 [9, 13]: 28%
increase in Cmax [9, 13]: 39%
AUC0-24 at 600 mg OD greater than at 300 mg OD ([9]; Day 7 without ketoconazole): 48%
Cmax at 600 mg OD greater than at 300 mg OD ([9]; Day 7 without ketoconazole): 42%
AUC0-24 at 600 mg OD greater than at 300 mg OD ([9]; Day 8 with 400 mg ketoconazole): 52%
Cmax at 600 mg OD greater than at 300 mg OD ([9]; Day 8 with 400 mg ketoconazole): 65%
half-life at 600 mg OD greater than at 300 mg OD ([9]; Day 8 with 400 mg ketoconazole): 13%
AUCt (AUC0-24 hours, mean) ([9]; MIFE 300 mg/d C1 Day 7, no ketoconazole): 37.734 µg·h/mL
Cmax (mean) ([9]; MIFE 300 mg/d C1 Day 8, 400 mg Keto single dose): 3240 ng/mL
corresponding increase in mifepristone AUC [10, 14]: 38.01%
corresponding increase in mifepristone Cmax [10, 14]: 27.59%
concentrations on Day 17 compared with Day 12 [10]: higher
Ratio % Test/Reference, AUC0-24 (geometric mean ratio) [10]: 138.01%
Ratio % Test/Reference, Cmax (geometric mean ratio) [10]: 127.59%
effect of co-administration with ketoconazole on exposure [10]: increased

Structure (SMILES): CC#C[C@]1(O)CC[C@H]2[C@@H]3CCC4=CC(=O)CCC4=C3[C@@H](c3ccc(NC)cc3)C[C@@]21C [RU 42633, (8S,11R,13S,14S,17S)-17-hydroxy-13-methyl-11-[4-(methylamino)phenyl]-17-prop-1-ynyl-1,2,6,7,8,11,12,14,15,16-decahydrocyclopenta[a]phenanthren-3-one]
Ratio % Test/Ref, AUC0-24 (geometric mean ratio) [8]: 91.34%
Ratio % Test/Ref, Cmax (geometric mean ratio) [8]: 96.31%
concentrations on Day 17 compared with Day 12 [10]: similar
Ratio % Test/Reference, AUC0-24 (geometric mean ratio) [10]: 102.33%
Ratio % Test/Reference, Cmax (geometric mean ratio) [10]: 105.73%
effect of co-administration with ketoconazole on exposure [10]: not affected by ketoconazole; also recorded: little change in exposure

Source: patent US10842800B2, “Concomitant administration of glucocorticoid receptor modulators and CYP3A inhibitors” (Corcept Therapeutics, Inc., priority 2017, dated 2020)
